Measurements from ChEMBL document CHEMBL5338706, “Discovery of a potent and selective proteolysis targeting chimera (PROTAC) degrader of NSD3 histone methyltransferase” (Eur J Med Chem, 2022).
The source made the active and inactive calls. The rule behind the calls is not given here.

Key:
[1] = target: T1, Histone-lysine N-methyltransferase NSD2 (Homo sapiens) (UniProt O96028); assay: Induction of NSD2 degradation in human NCI-H1703 cells at 3 to […] incubated for 72 hrs by Western blot analysis; format: cell-based; details: dose 3-7.5 µM
T1 sequence (whole entry): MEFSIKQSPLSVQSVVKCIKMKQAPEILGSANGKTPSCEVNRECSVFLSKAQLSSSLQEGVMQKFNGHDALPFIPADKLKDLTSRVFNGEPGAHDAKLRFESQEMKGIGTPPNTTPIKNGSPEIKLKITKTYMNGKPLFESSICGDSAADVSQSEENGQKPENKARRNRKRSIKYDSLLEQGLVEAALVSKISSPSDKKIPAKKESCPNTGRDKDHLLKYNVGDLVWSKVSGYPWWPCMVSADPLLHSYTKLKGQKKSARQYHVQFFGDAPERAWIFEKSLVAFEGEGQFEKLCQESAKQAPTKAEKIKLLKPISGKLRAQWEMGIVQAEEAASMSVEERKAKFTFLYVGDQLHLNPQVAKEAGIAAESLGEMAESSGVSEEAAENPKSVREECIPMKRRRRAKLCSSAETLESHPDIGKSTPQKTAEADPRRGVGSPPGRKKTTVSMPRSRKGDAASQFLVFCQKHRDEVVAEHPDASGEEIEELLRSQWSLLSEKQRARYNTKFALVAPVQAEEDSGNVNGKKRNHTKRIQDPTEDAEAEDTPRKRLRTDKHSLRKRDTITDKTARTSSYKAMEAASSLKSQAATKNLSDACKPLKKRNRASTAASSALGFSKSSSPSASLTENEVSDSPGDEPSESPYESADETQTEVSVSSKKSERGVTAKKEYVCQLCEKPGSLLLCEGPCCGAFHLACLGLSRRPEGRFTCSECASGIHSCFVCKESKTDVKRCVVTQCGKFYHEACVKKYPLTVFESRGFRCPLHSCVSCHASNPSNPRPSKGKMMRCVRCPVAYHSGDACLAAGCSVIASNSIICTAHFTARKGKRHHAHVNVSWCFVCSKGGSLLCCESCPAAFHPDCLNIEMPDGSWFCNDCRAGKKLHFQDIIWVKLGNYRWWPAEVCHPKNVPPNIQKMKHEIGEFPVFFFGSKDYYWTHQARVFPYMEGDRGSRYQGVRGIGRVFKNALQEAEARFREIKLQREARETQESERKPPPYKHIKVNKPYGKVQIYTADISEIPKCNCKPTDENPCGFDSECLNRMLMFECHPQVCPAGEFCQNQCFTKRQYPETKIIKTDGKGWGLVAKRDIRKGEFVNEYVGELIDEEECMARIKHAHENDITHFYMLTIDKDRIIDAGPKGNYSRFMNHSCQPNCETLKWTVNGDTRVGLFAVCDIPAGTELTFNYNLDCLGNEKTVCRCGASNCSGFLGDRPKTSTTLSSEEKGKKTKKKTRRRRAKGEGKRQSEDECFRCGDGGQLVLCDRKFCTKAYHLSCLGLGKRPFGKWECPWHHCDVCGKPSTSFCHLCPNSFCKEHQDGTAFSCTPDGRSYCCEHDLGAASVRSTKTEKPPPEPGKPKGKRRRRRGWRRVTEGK

NCI-H1703 [2] = assay: Downregulation of c-Myc level in human NCI-H1703 cells at 3 to […] by Western blot analysis; format: functional, cell-based; details: dose 3-7.5 µM
NCI-H1703 [3] = assay: Induction of apoptosis in human NCI-H1703 cells assessed as early apoptotic cells at 5 uM measured after 72 hrs by PI/Annexin-V staining based flow cytometry analysis (reference value: 1.47% ); format: functional
NCI-H1703 [4] = assay: Induction of apoptosis in human NCI-H1703 cells assessed as early apoptotic cells at […] measured after 72 hrs by PI/Annexin-V staining based flow cytometry analysis (reference value: 1.47% ); format: functional; details: dose 7.5 µM
NCI-H1703 [5] = assay: Induction of apoptosis in human NCI-H1703 cells assessed as late apoptotic cells at […] measured after 72 hrs by PI/Annexin-V staining based flow cytometry analysis (reference value: 3.00% ); format: functional; details: dose 7.5 µM
NCI-H1703 [6] = assay: Antiproliferative activity against human NCI-H1703 cells incubated for 6 days by CCK-8 method; format: functional, cell-based; details: NCI-H1703, 144 h
NCI-H520 = assay: Induction of apoptosis in human NCI-H520 cells assessed as decrease in Bcl-XL protein expression at 5 uM by measuring fold change by Western blot analysis relative to control; format: functional

Activity [1]: inactive
IC50 (NCI-H1703 [6]): 2740 nM
SMILES: Cc1cc(CNCCCCCCCCCCC(=O)N[C@H](C(=O)N2C[C@H](O)C[C@H]2C(=O)N[C@@H](C)c2ccc(-c3scnc3C)cc2)C(C)(C)C)cc(C)c1-c1ncn(C)c1-c1ccnc2cc(F)ccc12
Activity (NCI-H1703 [2]): Active
Activity (NCI-H1703 [3]): 7.5%
Activity (NCI-H1703 [4]): 3.68%
Activity (NCI-H1703 [5]): 26.6%
fold change (FC) (NCI-H520): 1.1
